In publication PMC7015555, “Transthyretin-Binding Activity of Complex Mixtures Representing the Composition of Thyroid-Hormone Disrupting Contaminants in House Dust and Human Serum” (Environmental Health Perspectives, 2020):
Where two headings read alike, the source gives them in different places.

Legend:
[1] = molecular target: T1, TTR (Homo sapiens, UniProt P02766); test: FITC-T4 TTR competitive binding assay; details: for REP (relative potency compared to T4): IC20 of T4 / IC20 of compound (Equation 14); for T4EQ concentration (nmol/g dust): reported concentration of the compound in SRM2585 dust x REP
[2] = tested on: TTR; details: cited from earlier work; for IC50: read-out: IC50 (M), Radioactive Ligand Binding Assay data from the literature; for REP, Radioactive Ligand Binding Assay data from the literature: relative effect potency
[3] = molecular target: T1, TTR; test: Saturation experiment for the FITC-T4-TTR complex; type: binding; details: 30 nM TTR, FITC-T4 0 to 1,000 nM, no inhibitor
Experimental: Competitive TTR-binding assays were performed by incubating human TTR ( 30nM ) with 110nM of FITC- T4 in the presence of test compounds, reference compound T4 , or carrier solvent control (1% DMSO). For each incubation with TTR, a parallel incubation was performed without TTR to correct for background fluorescence of the unbound FITC- T4 . In the competitive binding experiments, these control incubations were also used to check for possible quenching of FITC- T4 fluorescence by the test compounds and for autofluorescence of the test compounds themselves, neither of which was observed. […]
The Kd value for the FITC-T4-TTR complex was determined in a saturation binding experiment with various concentrations of FITC-T4 (ranging from LT = 0 to LT = 1E-6 M) in the absence or the presence of a fixed concentration of TTR (PT = 3E-8 M).
Using the least-squares method, a non-linear regression fit was performed on the corrected fluorescence Fc as a function of LT, yielding parameter estimates p*(q-1)=0.644 (AFU/nM) and […]
S1.4 Derivation of Ki from the ICx determined in the bioassay
The inhibitor-specific ICx value determined in the bioassay is defined as the total inhibitor concentration [IT] at which the concentration of ligand-protein complex [PLx] is (100-x)% of the concentration of ligand-protein complex in the absence of inhibitor [PL0], i.e. […]

[4] = set-up: method as in Jahnke et al. 2004; details: humans; ref Jahnke et al. 2004; cited from earlier work
[5] = set-up: method as in Jahnke et al. 2004; details: rodents; ref Jahnke et al. 2004; cited from earlier work
[6] = molecular target: TBG; details: ref Salvatore et al. 2016; read-out: Kd(TBG) for T4; cited from earlier work
[7] = inhibitor-TTR dissociation constant converted from IC20 (Equation 4), 4°C, read-out: Ki
[8] = 20% inhibition of FITC-T4 binding to TTR, 30 nM TTR, 110 nM FITC-T4, 2 h at 4°C, pH 8.0
[9] = individual compounds, 30 nM TTR, 110 nM FITC-T4, 2 h at 4°C, pH 8.0, — = 50% inhibition level not reached (footnote g), read-out: IC50

## Clc1cc(Cl)c(-c2cc(Cl)c(Cl)cc2Cl)cc1Cl [CB-153, 2,2ʹ,4,4ʹ,5,5ʹ-hexachlorobiphenyl]
[1]
  Ki: 150 nM
  REP (relative potency compared to T4): 0.27
  T4EQ concentration (nmol/g dust): 0.030 nmol/g dust
[1]; Figure 1C
  maximum competitive potency at high test concentrations: leveled off before reaching complete inhibition
[1]; pH 8
  IC20: 77 nM
[1]; read-out: IC50
  IC50: 180 nM
[2]; ref Weiss et al. 2015
  IC50: > 1.5e-05 M
  REP, Radioactive Ligand Binding Assay data from the literature: <0.0037
[2]; ref Hamers et al. (2011)
  REP, Radioactive Ligand Binding Assay data from the literature: <0.0037
[2]; –log(IC50), ref Excel Table S1
  pIC50 in the RLBA: < 4.8

## O=C1OC2(c3ccc(O)cc3Oc3cc(O)ccc32)c2ccc(NC(=S)NC(Cc3cc(I)c(Oc4cc(I)c(O)c(I)c4)c(I)c3)C(=O)O)cc21 (centres unmarked) [FITC- T4]
[3]
  Kd: 140 nM

## NS(=O)(=O)C(F)(F)C(F)(F)C(F)(F)C(F)(F)C(F)(F)C(F)(F)C(F)(F)C(F)(F)F [FOSA, perfluorooctane sulfonamide]
[1]
  REP (relative potency compared to T4): 0.11
  T4EQ concentration (nmol/g dust): 0.002 nmol/g dust
[1]; [7]
  Ki: 400 nM
[1]; pH 8
  IC20: 190 nM
[1]; read-out: IC50
  IC50: 730 nM
[2]; ref Weiss et al. 2015
  IC50: 6.12e-06 M
  REP, Radioactive Ligand Binding Assay data from the literature: 0.01

## O=S(=O)(O)C(F)(F)C(F)(F)C(F)(F)C(F)(F)F [PFBS, perfluorobutane sulfonic acid]
[1]; [8]
  IC20: 2300 nM
[1]
  REP (relative potency compared to T4): 0.0091
  T4EQ concentration (nmol/g dust): 0.002 nmol/g dust
[1]; [9]
  IC50: 9700 nM
[1]; [7]
  Ki: 5100 nM
[2]; ref Weiss et al. 2015
  IC50: 1.95e-05 M
  REP, Radioactive Ligand Binding Assay data from the literature: 0.003

## O=C(O)C(F)(F)C(F)(F)C(F)(F)C(F)(F)C(F)(F)C(F)(F)C(F)(F)C(F)(F)C(F)(F)F [PFDA, perfluorodecanoic acid]
[1]; [8]
  IC20: 1700 nM
[1]
  REP (relative potency compared to T4): 0.012
  T4EQ concentration (nmol/g dust): 0.001 nmol/g dust
[1]; [9]
  IC50: 5400 nM
[1]; read-out: Ki
  Ki: 3700 nM
[2]; ref Weiss et al. 2015
  IC50: 8.95e-06 M
  REP, Radioactive Ligand Binding Assay data from the literature: 0.007

## O=C(O)C(F)(F)C(F)(F)C(F)(F)C(F)(F)C(F)(F)C(F)(F)F [PFHpA, perfluoroheptanoic acid]
[1]
  Ki: 640 nM
  REP (relative potency compared to T4): 0.071
  T4EQ concentration (nmol/g dust): 0.048 nmol/g dust
[1]; pH 8
  IC20: 300 nM
[1]; read-out: IC50
  IC50: 1200 nM
[2]; ref Weiss et al. 2015
  IC50: 1.57e-06 M
  REP, Radioactive Ligand Binding Assay data from the literature: 0.039

## O=C(O)C(F)(F)C(F)(F)C(F)(F)C(F)(F)C(F)(F)F [PFHxA, perfluorohexanoic acid]
[1]; [8]
  IC20: 1600 nM
[1]
  REP (relative potency compared to T4): 0.014
  T4EQ concentration (nmol/g dust): 0.011 nmol/g dust
[1]; [9]
  IC50: 5600 nM
[1]; read-out: Ki
  Ki: 3400 nM
[2]; ref Weiss et al. 2015
  IC50: 8.22e-06 M

## O=S(=O)(O)C(F)(F)C(F)(F)C(F)(F)C(F)(F)C(F)(F)C(F)(F)F [PFHxS, perfluorohexane sulfonic acid]
[1]
  Ki: 280 nM
  REP (relative potency compared to T4): 0.16
  T4EQ concentration (nmol/g dust): 0.561 nmol/g dust
[1]; pH 8
  IC20: 140 nM
[1]; read-out: IC50
  IC50: 460 nM
[2]; ref Weiss et al. 2015
  IC50: 7.17e-07 M
  REP, Radioactive Ligand Binding Assay data from the literature: 0.085

## O=C(O)C(F)(F)C(F)(F)C(F)(F)C(F)(F)C(F)(F)C(F)(F)C(F)(F)C(F)(F)F [PFNA, perfluorononanoic acid]
[1]; [8]
  IC20: 360 nM
[1]
  REP (relative potency compared to T4): 0.059
  T4EQ concentration (nmol/g dust): 0.013 nmol/g dust
[1]; [9]
  IC50: 1100 nM
[1]; read-out: Ki
  Ki: 770 nM
[2]; ref Weiss et al. 2015
  IC50: 2.74e-06 M
  REP, Radioactive Ligand Binding Assay data from the literature: 0.022

## O=C(O)C(F)(F)C(F)(F)C(F)(F)C(F)(F)C(F)(F)C(F)(F)C(F)(F)F [PFOA, perfluorooctanoic acid]
[1]
  Ki: 1100 nM
  REP (relative potency compared to T4): 0.043
  T4EQ concentration (nmol/g dust): 0.060 nmol/g dust
[1]; pH 8
  IC20: 490 nM
[1]; read-out: IC50
  IC50: 1100 nM
[2]; ref Weiss et al. 2015
  IC50: 9.49e-07 M
  REP, Radioactive Ligand Binding Assay data from the literature: 0.064

## O=S(=O)(O)C(F)(F)C(F)(F)C(F)(F)C(F)(F)C(F)(F)C(F)(F)C(F)(F)C(F)(F)F [PFOS, perfluorooctane sulfonic acid]
[1]; [8]
  IC20: 82 nM
[1]
  REP (relative potency compared to T4): 0.26
  T4EQ concentration (nmol/g dust): 1.201 nmol/g dust
[1]; [9]
  IC50: 250 nM
[1]; read-out: Ki
  Ki: 160 nM
[2]; ref Weiss et al. 2015
  IC50: 9.4e-07 M
  REP, Radioactive Ligand Binding Assay data from the literature: 0.065

## O=C(O)C(F)(F)C(F)(F)C(F)(F)C(F)(F)C(F)(F)C(F)(F)C(F)(F)C(F)(F)C(F)(F)C(F)(F)F [PFUnDA, perfluoroundecanoic acid]
[1]; [8]
  IC20: 1000 nM
[1]
  REP (relative potency compared to T4): 0.021
  T4EQ concentration (nmol/g dust): 0.002 nmol/g dust
[1]; [9]
  IC50: 3100 nM
[1]; read-out: Ki
  Ki: 2200 nM
[2]; ref Weiss et al. 2015
  IC50: 2.16e-05 M
  REP, Radioactive Ligand Binding Assay data from the literature: 0.003

## Oc1c(Cl)c(Cl)c(Cl)c(Cl)c1Cl [Pentachlorophenol, pentachlorophenol]
[1]
  IC50: 60 nM
  Ki: 24 nM
  REP (relative potency compared to T4): 1.2
[1]; pH 8
  IC20: 17 nM
[2]; ref Weiss et al. 2015
  IC50: 2.3e-07 M
  REP, Radioactive Ligand Binding Assay data from the literature: 1.74

## CCCOC(=O)c1ccc(O)cc1 [Propylparaben, propyl 4-hydroxybenzoate]
[1]
  REP (relative potency compared to T4): 0.0039
[1]; [7]
  Ki: 12000 nM
[1]; pH 8
  IC20: 5500 nM
[1]; read-out: IC50
  IC50: 19000 nM
[2]; ref Zhang et al. 2015
  IC50: 1.9e-05 M
  REP, Radioactive Ligand Binding Assay data from the literature: 0.0038

## CC(C)(c1cc(Br)c(O)c(Br)c1)c1cc(Br)c(O)c(Br)c1 [TBBPA, tetrabromo-bisphenol-A]
[1]; [8]
  IC20: 14 nM
[1]
  REP (relative potency compared to T4): 1.5
  T4EQ concentration (nmol/g dust): 0.586 nmol/g dust
[1]; [9]
  IC50: 34 nM
[1]; read-out: Ki
  Ki: 17 nM
[2]; ref Weiss et al. 2015
  IC50: 3.1e-08 M
  REP, Radioactive Ligand Binding Assay data from the literature: 1.6

## NC(Cc1cc(I)c(Oc2cc(I)c(O)c(I)c2)c(I)c1)C(=O)O (centres unmarked) [Thyroxine ( T4 ), thyroxine]
[1]; pH 8
  IC20: 21 nM
[2]; ref Hamers et al. 2008, Weiss et al. 2009, read-out: IC20 in the radioligand binding assay
  IC20: ~30 nM
[4]
  T4 half-life time: 120 to 220 h
[5]
  T4 half-life time: 12 to 24 h
[6]
  Kd: 0.1 nM
